Results reported in ChEMBL document CHEMBL1153172, “Oxo-bridged isomers of aza-trishomocubane sigma (sigma) receptor ligands: Synthesis, in vitro binding, and molecular modeling” (Bioorg Med Chem Lett, 2010).

What was measured:
[1] = target: T1, Alpha-2C adrenergic receptor (Homo sapiens) (UniProt P18825); experiment: Inhibition of Alpha2C adrenoceptor receptor at 10 uM
T1 sequence (whole entry): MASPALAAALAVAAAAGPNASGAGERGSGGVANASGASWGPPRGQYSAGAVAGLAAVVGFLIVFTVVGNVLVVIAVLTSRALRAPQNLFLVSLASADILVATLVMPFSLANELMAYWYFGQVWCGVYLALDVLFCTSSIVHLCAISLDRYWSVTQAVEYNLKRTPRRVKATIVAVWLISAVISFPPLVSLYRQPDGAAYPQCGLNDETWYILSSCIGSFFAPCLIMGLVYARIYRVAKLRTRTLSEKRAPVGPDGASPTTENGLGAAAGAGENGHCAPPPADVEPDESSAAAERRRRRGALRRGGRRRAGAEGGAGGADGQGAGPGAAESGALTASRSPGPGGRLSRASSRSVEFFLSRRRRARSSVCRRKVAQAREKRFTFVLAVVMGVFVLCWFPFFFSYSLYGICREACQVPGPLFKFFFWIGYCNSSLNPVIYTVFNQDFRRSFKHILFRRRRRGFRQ

[2] = target: T2, Sodium-dependent dopamine transporter (Homo sapiens, UniProt Q01959); experiment: Inhibition of DAT at 10 uM
T2 sequence (Q01959 whole entry): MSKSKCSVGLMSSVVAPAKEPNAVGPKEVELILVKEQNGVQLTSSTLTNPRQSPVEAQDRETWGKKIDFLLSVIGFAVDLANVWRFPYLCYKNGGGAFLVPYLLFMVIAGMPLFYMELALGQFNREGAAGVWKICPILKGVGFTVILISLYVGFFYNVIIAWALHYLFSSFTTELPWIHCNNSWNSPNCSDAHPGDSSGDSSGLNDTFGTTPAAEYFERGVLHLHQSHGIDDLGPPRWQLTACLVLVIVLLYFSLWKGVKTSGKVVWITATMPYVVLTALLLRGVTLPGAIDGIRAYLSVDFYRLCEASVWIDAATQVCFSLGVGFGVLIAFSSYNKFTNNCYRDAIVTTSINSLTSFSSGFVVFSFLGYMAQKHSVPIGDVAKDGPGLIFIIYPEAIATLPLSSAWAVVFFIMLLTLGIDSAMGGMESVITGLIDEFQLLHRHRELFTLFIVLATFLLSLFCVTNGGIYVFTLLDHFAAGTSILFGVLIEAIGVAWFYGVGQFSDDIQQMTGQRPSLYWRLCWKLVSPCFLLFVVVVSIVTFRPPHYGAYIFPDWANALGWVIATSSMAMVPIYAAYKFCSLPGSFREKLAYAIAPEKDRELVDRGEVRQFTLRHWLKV

[3] = target: T2, Sodium-dependent dopamine transporter; experiment: Binding affinity to DAT
[4] = target: T3, Alpha-2C adrenergic receptor (Homo sapiens, UniProt P18825); experiment: (§1) Binding affinity to Alpha2C adrenoceptor receptor
T3 sequence (P18825 whole entry): T1 sequence (whole entry)

[5] = Binding affinity to sigma 2 receptor
[6] = Selectivity, ratio of Ki for sigma 1 to Ki for sigma 2
[7] = Inhibition of 5HT receptor at 10 uM
[8] = target: Sigma non-opioid intracellular receptor 1 (Homo sapiens, UniProt Q99720); experiment: Binding affinity to sigma 1 receptor
Sigma non-opioid intracellular receptor 1, sequence (Q99720 whole entry): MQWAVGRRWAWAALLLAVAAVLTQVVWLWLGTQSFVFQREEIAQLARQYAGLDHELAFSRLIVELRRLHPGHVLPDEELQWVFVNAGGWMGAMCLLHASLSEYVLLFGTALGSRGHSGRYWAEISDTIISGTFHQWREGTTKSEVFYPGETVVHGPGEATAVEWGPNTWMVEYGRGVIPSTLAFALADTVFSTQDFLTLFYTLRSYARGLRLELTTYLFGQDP

[9] = target: T4, Sodium-dependent noradrenaline transporter (Homo sapiens, UniProt P23975); experiment: Binding affinity to NET
[10] = target: Histamine H2 receptor (Homo sapiens) (UniProt P25021); experiment: Inhibition of histamine H2 receptor at 10 uM
[11] = target: 5-hydroxytryptamine receptor 3A (Homo sapiens) (UniProt P46098); experiment: Inhibition of 5HT3 receptor at 10 uM
[12] = target: Kappa-type opioid receptor (Homo sapiens) (UniProt P41145); experiment: Inhibition of Kappa opioid receptor at 10 uM
[13] = target: 5-hydroxytryptamine receptor 2C (Homo sapiens) (UniProt P28335); experiment: Inhibition of 5HT2C receptor at 10 uM
5-hydroxytryptamine receptor 2C (Homo sapiens), sequence (P28335 whole entry): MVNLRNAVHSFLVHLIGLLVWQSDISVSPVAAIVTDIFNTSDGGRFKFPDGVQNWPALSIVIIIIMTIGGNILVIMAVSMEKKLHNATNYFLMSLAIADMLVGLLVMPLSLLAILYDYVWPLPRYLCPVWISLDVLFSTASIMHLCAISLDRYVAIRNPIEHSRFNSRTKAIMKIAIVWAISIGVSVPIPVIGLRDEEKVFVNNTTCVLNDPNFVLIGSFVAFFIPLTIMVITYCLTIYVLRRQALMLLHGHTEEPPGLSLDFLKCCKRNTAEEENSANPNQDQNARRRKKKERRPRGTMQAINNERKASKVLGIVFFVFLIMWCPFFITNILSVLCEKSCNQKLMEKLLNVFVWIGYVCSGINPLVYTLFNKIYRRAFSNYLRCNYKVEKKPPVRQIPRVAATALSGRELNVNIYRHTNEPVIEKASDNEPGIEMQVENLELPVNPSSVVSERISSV

[14] = target: Histamine H3 receptor (Homo sapiens) (UniProt Q9Y5N1); experiment: Inhibition of histamine H3 receptor at 10 uM
Histamine H3 receptor (Homo sapiens), sequence (Q9Y5N1 whole entry): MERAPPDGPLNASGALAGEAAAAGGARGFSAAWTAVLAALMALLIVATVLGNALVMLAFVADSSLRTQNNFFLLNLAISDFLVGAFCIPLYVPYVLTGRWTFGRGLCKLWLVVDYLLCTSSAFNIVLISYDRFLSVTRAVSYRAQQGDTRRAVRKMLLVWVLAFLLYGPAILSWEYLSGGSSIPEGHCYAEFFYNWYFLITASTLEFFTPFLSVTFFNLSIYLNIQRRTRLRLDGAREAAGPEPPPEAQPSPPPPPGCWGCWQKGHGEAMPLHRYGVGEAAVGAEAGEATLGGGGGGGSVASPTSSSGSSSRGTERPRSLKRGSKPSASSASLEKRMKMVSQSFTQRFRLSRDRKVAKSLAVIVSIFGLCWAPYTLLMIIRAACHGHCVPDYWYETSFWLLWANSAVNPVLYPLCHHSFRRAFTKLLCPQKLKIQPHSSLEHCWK

[15] = target: 5-hydroxytryptamine receptor 2B (Homo sapiens) (UniProt P41595); experiment: Inhibition of 5HT2B receptor at 10 uM
[16] = Inhibition of Ca2+ channel at 10 uM
[17] = target: D(2) dopamine receptor (Homo sapiens) (UniProt P14416); experiment: Inhibition of D2 receptor at 10 uM
D(2) dopamine receptor (Homo sapiens), sequence (P14416 whole entry): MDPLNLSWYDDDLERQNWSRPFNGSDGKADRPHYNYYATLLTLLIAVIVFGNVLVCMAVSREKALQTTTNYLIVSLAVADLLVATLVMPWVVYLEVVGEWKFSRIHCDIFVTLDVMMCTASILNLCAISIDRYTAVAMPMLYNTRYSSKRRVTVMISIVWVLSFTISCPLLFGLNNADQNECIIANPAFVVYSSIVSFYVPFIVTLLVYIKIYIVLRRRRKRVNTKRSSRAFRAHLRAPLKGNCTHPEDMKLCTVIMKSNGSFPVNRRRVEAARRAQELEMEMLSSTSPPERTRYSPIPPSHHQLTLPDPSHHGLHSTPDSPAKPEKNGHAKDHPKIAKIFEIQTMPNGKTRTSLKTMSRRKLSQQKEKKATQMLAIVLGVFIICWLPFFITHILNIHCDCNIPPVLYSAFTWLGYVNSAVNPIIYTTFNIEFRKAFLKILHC

[18] = target: 5-hydroxytryptamine receptor 7 (Homo sapiens) (UniProt P34969); experiment: Inhibition of 5HT7 receptor at 10 uM
[19] = target: 5-hydroxytryptamine receptor 1E (Homo sapiens) (UniProt P28566); experiment: Inhibition of 5HT1E receptor at 10 uM
[20] = target: D(1A) dopamine receptor (Homo sapiens) (UniProt P21728); experiment: Inhibition of D1 receptor at 10 uM
D(1A) dopamine receptor (Homo sapiens), sequence (P21728 whole entry): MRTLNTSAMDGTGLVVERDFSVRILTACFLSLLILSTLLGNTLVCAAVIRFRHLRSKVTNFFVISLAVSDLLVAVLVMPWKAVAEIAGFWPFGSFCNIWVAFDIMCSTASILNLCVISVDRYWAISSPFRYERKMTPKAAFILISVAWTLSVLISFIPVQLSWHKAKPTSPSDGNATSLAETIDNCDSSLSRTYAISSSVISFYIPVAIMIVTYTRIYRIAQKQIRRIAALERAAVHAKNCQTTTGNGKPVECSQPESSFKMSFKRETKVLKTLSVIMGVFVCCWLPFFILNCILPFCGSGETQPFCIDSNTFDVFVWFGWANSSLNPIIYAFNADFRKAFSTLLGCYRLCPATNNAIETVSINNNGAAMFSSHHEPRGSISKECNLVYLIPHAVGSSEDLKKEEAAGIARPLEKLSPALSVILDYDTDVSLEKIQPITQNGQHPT

[21] = target: 5-hydroxytryptamine receptor 1B (Homo sapiens) (UniProt P28222); experiment: Inhibition of 5HT1B receptor at 10 uM
[22] = target: 5-hydroxytryptamine receptor 2A (Homo sapiens) (UniProt P28223); experiment: Inhibition of 5HT2A receptor at 10 uM
[23] = target: Cannabinoid receptor 2 (Homo sapiens) (UniProt P34972); experiment: Inhibition of CB2 receptor at 10 uM
[24] = target: T3, Alpha-2C adrenergic receptor; experiment: as §1; remark: listed apart in the source
[25] = target: 5-hydroxytryptamine receptor 1A (Homo sapiens, UniProt P08908); experiment: Binding affinity to 5HT1A receptor
[26] = target: 5-hydroxytryptamine receptor 6 (Homo sapiens) (UniProt P50406); experiment: Inhibition of 5HT6 receptor at 10 uM
5-hydroxytryptamine receptor 6 (Homo sapiens), sequence (P50406 whole entry): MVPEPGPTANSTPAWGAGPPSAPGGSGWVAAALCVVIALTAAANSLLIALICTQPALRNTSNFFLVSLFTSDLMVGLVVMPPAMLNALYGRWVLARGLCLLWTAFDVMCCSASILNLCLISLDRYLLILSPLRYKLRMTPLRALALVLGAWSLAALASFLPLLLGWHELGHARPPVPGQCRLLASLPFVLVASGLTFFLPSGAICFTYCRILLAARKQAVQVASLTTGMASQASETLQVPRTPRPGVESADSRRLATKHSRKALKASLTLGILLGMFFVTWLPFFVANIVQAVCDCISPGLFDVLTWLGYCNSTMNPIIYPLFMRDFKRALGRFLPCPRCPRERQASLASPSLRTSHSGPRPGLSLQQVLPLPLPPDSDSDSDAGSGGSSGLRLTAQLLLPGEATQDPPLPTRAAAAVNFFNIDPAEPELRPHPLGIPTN

[27] = target: Histamine H4 receptor (Homo sapiens) (UniProt Q9H3N8); experiment: Inhibition of histamine H4 receptor at 10 uM
Histamine H4 receptor (Homo sapiens), sequence (Q9H3N8 whole entry): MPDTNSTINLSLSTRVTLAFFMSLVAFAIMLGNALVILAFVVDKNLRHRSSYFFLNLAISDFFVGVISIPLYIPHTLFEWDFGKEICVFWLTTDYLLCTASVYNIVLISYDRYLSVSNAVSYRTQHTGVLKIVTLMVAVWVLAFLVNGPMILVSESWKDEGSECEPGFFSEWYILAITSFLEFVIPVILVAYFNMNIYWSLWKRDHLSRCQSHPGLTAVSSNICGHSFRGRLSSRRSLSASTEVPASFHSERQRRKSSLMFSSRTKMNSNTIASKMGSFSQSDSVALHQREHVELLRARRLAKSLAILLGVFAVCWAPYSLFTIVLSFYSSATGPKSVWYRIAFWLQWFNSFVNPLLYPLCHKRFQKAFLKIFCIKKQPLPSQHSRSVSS

[28] = target: Delta-type opioid receptor (Homo sapiens) (UniProt P41143); experiment: Inhibition of Delta opioid receptor at 10 uM
Delta-type opioid receptor (Homo sapiens), sequence (P41143 whole entry): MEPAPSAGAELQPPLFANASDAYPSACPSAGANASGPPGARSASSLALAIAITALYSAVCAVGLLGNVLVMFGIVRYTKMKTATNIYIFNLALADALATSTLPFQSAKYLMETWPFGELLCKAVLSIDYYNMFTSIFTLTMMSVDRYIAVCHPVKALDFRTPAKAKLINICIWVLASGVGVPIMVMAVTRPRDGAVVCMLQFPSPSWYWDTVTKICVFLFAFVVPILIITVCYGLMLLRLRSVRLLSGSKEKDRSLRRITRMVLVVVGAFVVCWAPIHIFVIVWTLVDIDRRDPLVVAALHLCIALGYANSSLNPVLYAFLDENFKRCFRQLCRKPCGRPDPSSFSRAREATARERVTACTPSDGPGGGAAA

[29] = target: Mu-type opioid receptor (Homo sapiens) (UniProt P35372); experiment: Inhibition of mu opioid receptor at 10 uM
[30] = target: 5-hydroxytryptamine receptor 1D (Homo sapiens) (UniProt P28221); experiment: Inhibition of 5HT1D receptor at 10 uM
[31] = target: Alpha-1A adrenergic receptor (Homo sapiens) (UniProt P35348); experiment: Inhibition of Alpha1A adrenoceptor receptor at 10 uM
[32] = Inhibition of phencyclidine binding site of NMDA receptor at 10 uM
[33] = target: 5-hydroxytryptamine receptor 5A (Homo sapiens) (UniProt P47898); experiment: Inhibition of 5HT5A receptor at 10 uM
[34] = target: Alpha-2A adrenergic receptor (Homo sapiens) (UniProt P08913); experiment: Inhibition of Alpha2A adrenoceptor receptor at 10 uM
Alpha-2A adrenergic receptor (Homo sapiens), sequence (P08913 whole entry): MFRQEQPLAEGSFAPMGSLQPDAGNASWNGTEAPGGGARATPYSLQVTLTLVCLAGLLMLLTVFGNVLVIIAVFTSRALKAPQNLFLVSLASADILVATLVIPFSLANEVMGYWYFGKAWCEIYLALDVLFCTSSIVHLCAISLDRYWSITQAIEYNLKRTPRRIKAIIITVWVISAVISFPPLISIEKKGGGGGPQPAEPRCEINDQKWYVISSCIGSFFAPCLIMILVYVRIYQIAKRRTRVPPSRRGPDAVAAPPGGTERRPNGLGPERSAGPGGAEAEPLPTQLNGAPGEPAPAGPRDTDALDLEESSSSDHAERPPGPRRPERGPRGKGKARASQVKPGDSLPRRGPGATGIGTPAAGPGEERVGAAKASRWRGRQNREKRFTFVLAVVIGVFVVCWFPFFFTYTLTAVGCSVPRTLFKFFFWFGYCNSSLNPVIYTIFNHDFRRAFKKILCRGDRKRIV

[35] = target: Alpha-1B adrenergic receptor (Homo sapiens) (UniProt P35368); experiment: Inhibition of Alpha1B adrenoceptor receptor at 10 uM
[36] = target: Beta-1 adrenergic receptor (Homo sapiens) (UniProt P08588); experiment: Inhibition of beta-1 adrenoceptor receptor at 10 uM
[37] = target: Histamine H1 receptor (Homo sapiens) (UniProt P35367); experiment: Inhibition of histamine H1 receptor at 10 uM
[38] = target: 5-hydroxytryptamine receptor 4 (Homo sapiens) (UniProt Q13639); experiment: Inhibition of 5HT4 receptor at 10 uM
[39] = target: Alpha-2B adrenergic receptor (Homo sapiens) (UniProt P18089); experiment: Inhibition of Alpha2B adrenoceptor receptor at 10 uM
[40] = target: Beta-2 adrenergic receptor (Homo sapiens) (UniProt P07550); experiment: Inhibition of beta2 adrenoceptor receptor at 10 uM
Beta-2 adrenergic receptor (Homo sapiens), sequence (P07550 whole entry, looked up): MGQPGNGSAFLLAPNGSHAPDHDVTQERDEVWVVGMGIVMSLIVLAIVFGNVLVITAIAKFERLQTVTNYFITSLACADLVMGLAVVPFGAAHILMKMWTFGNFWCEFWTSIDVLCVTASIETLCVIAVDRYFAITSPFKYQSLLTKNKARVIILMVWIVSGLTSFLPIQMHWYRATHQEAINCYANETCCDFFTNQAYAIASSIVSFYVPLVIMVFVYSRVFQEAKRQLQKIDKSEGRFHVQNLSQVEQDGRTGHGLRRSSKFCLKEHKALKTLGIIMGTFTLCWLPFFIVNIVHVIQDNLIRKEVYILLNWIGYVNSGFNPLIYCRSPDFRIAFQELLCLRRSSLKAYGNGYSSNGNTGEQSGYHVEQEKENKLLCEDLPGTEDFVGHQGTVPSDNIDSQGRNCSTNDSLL

[41] = target: Cannabinoid receptor 1 (Homo sapiens) (UniProt P21554); experiment: Inhibition of CB1 receptor at 10 uM
[42] = target: 5-hydroxytryptamine receptor 1A (Homo sapiens) (UniProt P08908); experiment: Inhibition of 5HT1A receptor at 10 uM
[43] = target: T4, Sodium-dependent noradrenaline transporter; experiment: Inhibition of NET at 10 uM

Structure (SMILES): OC12C3C4CC5C6C4C1C6C(C53)N2CCc1cccc(F)c1 (stereo not drawn)
- inhibition [1]: < 50%
- inhibition [2]: < 50%
- Ki [3]: > 10000 nM
- Ki [4]: > 10000 nM
- Ki [5]: 48 nM
- Ratio [6]: 0.25
- inhibition [7]: < 50%
- Ki [8]: 12 nM

Structure (SMILES): Fc1cccc(CCNC23OC4C5C6CC(C7C6C4C72)C53)c1 (stereo not drawn)
- Ki [9]: > 10000 nM
- inhibition [10]: < 50%
- inhibition [11]: < 50%
- inhibition [12]: < 50%
- inhibition [13]: < 50%
- inhibition [14]: < 50%
- Ki [3]: 137 nM
- inhibition [15]: < 50%
- inhibition [16]: < 50%
- Ki [4]: 20 nM
- inhibition [17]: < 50%
- inhibition [18]: < 50%
- Ki [5]: 363 nM
- inhibition [19]: < 50%
- inhibition [20]: < 50%
- inhibition [21]: < 50%
- inhibition [22]: < 50%
- inhibition [23]: < 50%
- Ki [24]: 20 nM
- Ratio [6]: 0.41
- Ki [25]: > 10000 nM
- inhibition [26]: < 50%
- inhibition [27]: < 50%
- inhibition [28]: < 50%
- inhibition [29]: < 50%
- inhibition [30]: < 50%
- inhibition [7]: < 50%
- inhibition [31]: < 50%
- inhibition [32]: < 50%
- inhibition [33]: < 50%
- inhibition [34]: < 50%
- Ki [8]: 149 nM
- inhibition [35]: < 50%
- inhibition [36]: < 50%
- inhibition [37]: < 50%
- inhibition [38]: < 50%
- inhibition [39]: < 50%
- inhibition [40]: < 50%
- inhibition [41]: < 50%

Structure (SMILES): Fc1cccc(CNC23OC4C5C6CC(C7C6C4C72)C53)c1 (stereo not drawn)
- inhibition [1]: < 50%
- inhibition [42]: < 50%
- inhibition [2]: < 50%
- inhibition [10]: < 50%
- inhibition [11]: < 50%
- inhibition [12]: < 50%
- inhibition [13]: < 50%
- inhibition [14]: < 50%
- Ki [3]: > 10000 nM
- inhibition [15]: < 50%
- inhibition [16]: < 50%
- inhibition [17]: < 50%
- inhibition [18]: < 50%
- Ki [5]: 1640 nM
- inhibition [19]: < 50%
- inhibition [43]: < 50%
- inhibition [20]: < 50%
- inhibition [21]: < 50%
- inhibition [22]: < 50%
- inhibition [23]: < 50%
- Ratio [6]: 1.39
- inhibition [26]: < 50%
- inhibition [27]: < 50%
- inhibition [28]: < 50%
- inhibition [29]: < 50%
- inhibition [30]: < 50%
- inhibition [7]: < 50%
- inhibition [31]: < 50%
- inhibition [32]: < 50%
- inhibition [33]: < 50%
- inhibition [34]: < 50%
- Ki [8]: 2280 nM
- inhibition [35]: < 50%
- inhibition [36]: < 50%
- inhibition [37]: < 50%
- inhibition [39]: < 50%
- inhibition [40]: < 50%
- inhibition [41]: < 50%

Structure (SMILES): OC12C3C4CC5C6C4C1C6C(C53)N2Cc1cccc(F)c1 (stereo not drawn)
- inhibition [1]: < 50%
- inhibition [2]: < 50%
- Ki [3]: > 10000 nM
- Ki [4]: > 10000 nM
- Ki [5]: 31 nM
- Ratio [6]: 4.94
- inhibition [7]: < 50%
- Ki [8]: 153 nM
